`CCCNC(=O)N(C)Cc1cccc2c1CN(C1CCC(=O)NC1=O)C2=O` (stereo not shown) [Example 5.30, 1-[2-(2,6-dioxo-piperidin-3-yl)-1-oxo-2,3-dihydro-1H-isoindol-4-ylmethyl]-1-methyl-3-propyl-urea] returned a melting point of 220 to 222 °C.
On to `CN(Cc1cccc2c1C(=O)N(C1CCC(=O)NC1=O)C2=O)C(=O)OC(C)(C)C` (stereo not shown) [Example 5.1, [2-(2,6-dioxo-piperidin-3-yl)-1,3-dioxo-2,3-dihydro-1H-isoindol-4-ylmethyl]-methyl-carbamic acid T-butyl ester], for which the melting point lay in the range of 138 to 140 °C.
Take `CN(Cc1cccc2c1CN(C1CCC(=O)NC1=O)C2=O)C(=O)Nc1cccc(C(F)(F)F)c1` (stereo not shown) [Example 5.34, 1-[2-(2,6-dioxo-piperidin-3-yl)-1-oxo-2,3-dihydro-1H-isoindol-4-ylmethyl]-1-methyl-3-(3-trifluoromethyl-phenyl)-urea]: the melting point was in the range of 198 to 200 °C.
With `CN(Cc1cccc2c1CN(C1CCC(=O)NC1=O)C2=O)C(=O)Nc1cccc(Cl)c1` (stereo not shown) [Example 5.32, 3-(3-chloro-phenyl)-1-[2-(2,6-dioxo-piperidin-3-yl)-1-oxo-2,3-dihydro-1H-isoindol-4-ylmethyl]-1-methyl-urea], the melting point is 193 to 195 °C.
Compound `Cc1ccc(NC(=O)N(C)Cc2cccc3c2C(=O)N(C2CCC(=O)NC2=O)C3=O)cc1C` (stereo not shown) [Example 5.40, 3-(3,4-dimethyl-phenyl)-1-[2-(2,6-dioxo-piperidin-3-yl)-1,3-dioxo-2,3-dihydro-1H-isoindol-4-ylmethyl]-1-methyl-urea] showed a melting point of 202 to 204 °C.
`CN(Cc1cccc2c1C(=O)N(C1CCC(=O)NC1=O)C2=O)C(=O)NC(C)(C)C` (stereo not shown) [Example 5.36, 3-tert-butyl-1-[2-(2,6-dioxo-piperidin-3-yl)-1,3-dioxo-2,3-dihydro-1H-isoindol-4-ylmethyl]-1-methyl-urea] showed a melting point of 188 to 190 °C.
The compound `Cc1cccc(NC(=O)N(C)Cc2cccc3c2CN(C2CCC(=O)NC2=O)C3=O)c1` (stereo not shown) [Example 5.29, 1-[2-(2,6-dioxo-piperidin-3-yl)-1-oxo-2,3-dihydro-1H-isoindol-4-ylmethyl]-1-methyl-3-M-tolyl-urea] gave a melting point of 208 to 210 °C.
The compound `CN(Cc1cccc2c1C(=O)N(C1CCC(=O)NC1=O)C2=O)C(=O)Nc1cccc(Cl)c1` (stereo not shown) [Example 5.35, 3-(3-chloro-phenyl)-1-[2-(2,6-dioxo-piperidin-3-yl)-1,3-dioxo-2,3-dihydro-1H-isoindol-4-ylmethyl]-1-methyl-urea] yielded a melting point of 193 to 195 °C.
Take `CN(Cc1cccc2c1CN(C1CCC(=O)NC1=O)C2=O)C(=O)Nc1cc(Cl)cc(Cl)c1` (stereo not shown) [Example 5.37, 3-(3,5-dichloro-phenyl)-1-[2-(2,6-dioxo-piperidin-3-yl)-1-oxo-2,3-dihydro-1H-isoindol-4-ylmethyl]-1-methyl-urea]: the melting point lay in the range of 285 to 287 °C.
To `CN(Cc1cccc2c1CN(C1CCC(=O)NC1=O)C2=O)C(=O)Nc1cccc2ccccc12` (stereo not shown) [Example 5.41, 1-[2-(2,6-dioxo-piperidin-3-yl)-1-oxo-2,3-dihydro-1H-isoindol-4-ylmethyl]-1-methyl-3-naphthalen-1-yl-urea] belongs 292 to 294 °C.

As a reminder, the melting point is the temperature, or range, at which the solid turns liquid.

These data come from patent US8648096B2, “N-methylaminomethyl isoindole compounds and compositions comprising and methods of using the same” (Celgene Corporation, priority 2006, dated 2014).
